Experimental findings from ChEMBL document CHEMBL3217491, “Design, synthesis and biological evaluation of imidazopyridine/pyrimidine-chalcone derivatives as potential anticancer agents” (2010) are described below.

Calls of active or inactive are those of the source. No cut-off for these calls is given here.

The test system of one assay is DU-145. As to the kind of experiment: Growth inhibition of human DU145 cells after 48 hrs by SRB assay. The conditions noted are these: DU-145, 48 h. In kind it is functional. (In general: Sulforhodamine B stains cellular protein and so reports cell mass.)
A further assay has as its system MDA-MB-468. As to the kind of experiment: Growth inhibition of human MDA-MB-468 cells after 48 hrs by SRB assay. In kind it is functional. The conditions noted are these: MDA-MB-468, 48 h.
The test system of assay [1] is MCF7. Briefly: Growth inhibition of human MCF7 cells assessed as cell viability at 4 uM after 24 hrs by MTT assay. In kind it is functional, cell-based.
For assay [2], the system named is MCF7. As to the kind of experiment: Cell cycle arrest in human MCF7 cells assessed as accumulation at G2/M phase at 4 uM after 24 hrs by propidium iodide staining-based flow cytometry (reference value: 15.79%). In kind it is functional. In general terms: Flow cytometry measures light scatter and fluorescence of single cells or particles in a stream.
Assay [3] relates to MCF7. As to the kind of experiment: Induction of cell cycle arrestin human MCF7 cells assessed as downregulation of E2F-1 protein expression at 4 uM by Western blot analysis. Format: functional, cell-based.
Assay [4] concerns MCF7. Briefly: Induction of apoptosis in human MCF7 cells assessed as upregulation of p27 protein expression at 4 uM by Western blot analysis relative to control. In kind it is functional, cell-based. (Immunoblotting shows a protein as a band on a membrane.)
Assay [5] relates to MCF7. Briefly: Induction of apoptosis in human MCF7 cells assessed as decrease in procaspase 9 level at 4 uM by Western blot analysis relative to control. Format: functional, cell-based.
A further assay relates to HL-60(TB). As to the kind of experiment: Growth inhibition of human HL-60(TB) cells after 48 hrs by SRB assay. Conditions: HL-60, 48 h. In kind it is functional.
A short description of assay [6]: Growth inhibition of human MOLT4 cells after 48 hrs by SRB assay. Format: functional. Conditions: MOLT-4, 48 h.
The next assay deals with A549. Briefly: Growth inhibition of human A549 cells after 48 hrs by SRB assay. In kind it is functional. Conditions: A549, 48 h.
The next assay has as its system COLO 205. As to the kind of experiment: Growth inhibition of human COLO205 cells after 48 hrs by SRB assay. In kind it is functional. The conditions noted are these: COLO 205, 48 h.
In another assay the test system is HCT-116. As to the kind of experiment: Growth inhibition of human HCT116 cells after 48 hrs by SRB assay. Format: functional. The conditions noted are these: HCT-116, 48 h.
The nature of assay [7]: Growth inhibition of human SF295 cells after 48 hrs by SRB assay. In kind it is functional. The conditions noted are these: SF-295, 48 h.
In the next assay the test system is SNB-19. As to the kind of experiment: Growth inhibition of human SNB19 cells after 48 hrs by SRB assay. The conditions noted are these: SNB-19, 48 h. In kind it is functional.
The test system of a further assay is SNB-75. As to the kind of experiment: Growth inhibition of human SNB75 cells after 48 hrs by SRB assay. In kind it is functional. The conditions noted are these: SNB-75, 48 h.
Another assay has as its system U-251. Briefly: Growth inhibition of human U251 cells after 48 hrs by SRB assay. Format: functional. Conditions: U-251, 48 h.
For a further assay, the system named is IGROV-1. Briefly: Growth inhibition of human IGROV1 cells after 48 hrs by SRB assay. In kind it is functional. Conditions: IGROV-1, 48 h.
Assay [8] in a line: Growth inhibition of human OVCAR3 cells after 48 hrs by SRB assay. In kind it is functional. Conditions: OVCAR-3, 48 h.
Assay [9] can be described thus: Growth inhibition of human OVCAR5 cells after 48 hrs by SRB assay. Format: functional. Conditions: OVCAR-5, 48 h.

The GI50 is the concentration that inhibits growth by half. The low end stands for greater sensitivity of the cells, the high end for lower sensitivity of the cells.

Consider `COc1ccc(C(=O)/C=C/c2c(C(F)(F)F)nc3ccccn23)cc1OC`, for which the concentration for 50% growth inhibition (GI50) stood at 650 nM in the assay with DU-145; 1900 nM with MDA-MB-468; 1520 nM in the assay with HL-60(TB); 1030 nM in assay [6]; 2800 nM in the assay with A549; 1920 nM in the assay on COLO 205. Moreover, the concentration for 50% growth inhibition (GI50) in the assay with HCT-116 was 840 nM; in [7], 3150 nM; with SNB-19 it was 1590 nM; in the assay with SNB-75, 2350 nM; in the assay with U-251, 1100 nM; in the assay on IGROV-1 it was 440 nM. Besides, the concentration for 50% growth inhibition (GI50) was 1980 nM in [8] and 3790 nM in assay [9]. Moreover, the inhibition result with MCF7 [1] and in the assay on MCF7 [5] was “Active” throughout. In addition, in the assay with MCF7 [2], the Activity is 0.31%. Further, the inhibition entry in the assay with MCF7 [3] is “inactive”. In addition, the outcome in the assay with MCF7 [4] was Active.
